Measured values from BigSolDB 2.1.

c1cnc2[nH]ccc2c1
solubility (mole fraction)
Details	278.15 K	283.15 K	288.15 K	293.15 K	298.15 K	303.15 K	308.15 K	313.15 K	318.15 K	323.15 K
in THF	0.343	0.361	0.377	0.397	0.419	0.436	0.458	0.479	0.5	0.523
in acetone	0.262	0.282	0.301	0.322	0.341	0.361	0.383	0.402	0.423	0.443
in acetonitrile	0.11	0.116	0.124	0.134	0.145	0.159	0.174	0.193	0.214	0.242
in ethanol	0.152	0.172	0.191	0.211	0.232	0.252	0.275	0.299	0.326	0.356
in ethyl acetate	0.21	0.217	0.226	0.237	0.251	0.265	0.283	0.302	0.324	0.346
in isopropanol	0.204	0.217	0.231	0.247	0.262	0.279	0.298	0.315	0.336	0.36
in methanol	0.228	0.238	0.25	0.262	0.277	0.293	0.31	0.33	0.351	0.372
in n-hexane	0.0192	0.0201	0.0215	0.0234	0.0256	0.0279	0.0307	0.0337	0.0376	0.0425
in n-propanol	0.19	0.202	0.215	0.233	0.253	0.272	0.291	0.312	0.333	0.359
